Reference: PubChem BioAssay AID274 (DTP/NCI, 2004)
Values joined by “and” are separate entries in the source; they are usually repeats but may differ in a detail not shown here. Identical values can stand only once. Inconclusive results and toxic doses are left out. Numbered stars: 1 amine (or outer) side, 2 acyl side, 3 side chain; on linkers, the order of the positions; unused ones are H or OH. Square brackets hold non-standard residues; d marks the D form. Peptide text beside a SMILES is read from it. * marks the point of attachment. X2 = CCC(=O)CC1CC(C)CC(C(=O)[*:2])N1[*:1]; X1 = CCCCCCCCC(C)C(=O)*; Aib = CC(C)(N)C(=O)O; X3 = CC(CN(C)CCO)N*

Test system: BDF1 mice, Lewis lung carcinoma iv, survival T/C
Assay: NCI In Vivo Anticancer Drug Screen. Data for tumor model Lewis Lung Carcinoma (intravenous) in B6D2F1 (BDF1) mice
Settings: endpoint: median survival time, higher = longer survival
Description: The antitumor activity of compounds was measured in mice bearing transplantable tumors. Survival or tumor size were measured and the results are expressed as the measurement made in the treated group (T) divided by the measurement made in the vehicle treated control group (C). The tumor model used in this assay is Lewis Lung Carcinoma (intravenous) in B6D2F1 (BDF1) mice

[1] = dose: 5.0 mg/kg/injection, schedule: Q01DX009 (ip), vehicle: saline
[2] = dose: 12.5 mg/kg/injection, schedule: Q01DX009 (ip), vehicle: saline with Tween-80
[3] = dose: 25.0 mg/kg/injection, schedule: Q01DX009 (ip), vehicle: saline with Tween-80
[4] = dose: 50.0 mg/kg/injection, schedule: Q01DX009 (ip), vehicle: saline with Tween-80
[5] = dose: 100.0 mg/kg/injection, schedule: Q01DX009 (ip), vehicle: saline with Tween-80
[6] = dose: 200.0 mg/kg/injection, schedule: Q01DX009 (ip), vehicle: saline with Tween-80
[7] = dose: 400.0 mg/kg/injection, schedule: Q01DX009 (ip), vehicle: saline with Tween-80
[8] = dose: 12.5 mg/kg/injection, schedule: Q01DX009 (ip), vehicle: Klucel (hydroxypropylcellulose) (HPC)
[9] = dose: 25.0 mg/kg/injection, schedule: Q01DX009 (ip), vehicle: Klucel (hydroxypropylcellulose) (HPC)
[10] = dose: 50.0 mg/kg/injection, schedule: Q01DX009 (ip), vehicle: Klucel (hydroxypropylcellulose) (HPC)
[11] = dose: 100.0 mg/kg/injection, schedule: Q01DX009 (ip), vehicle: Klucel (hydroxypropylcellulose) (HPC)
[12] = dose: 3.12 mg/kg/injection, schedule: Q01DX009 (ip), vehicle: saline with Tween-80
[13] = dose: 6.25 mg/kg/injection, schedule: Q01DX009 (ip), vehicle: saline with Tween-80
[14] = dose: 1.56 mg/kg/injection, schedule: Q01DX009 (ip), vehicle: saline with Tween-80

## C/C=C(\C)c1cc(=O)c2c(C)cc3c(c2o1)C(=O)c1c(O)c(C2CC(C)(N(C)C)C(OC(C)=O)C(C)O2)cc(C2CC(N(C)C)C(O)C(C)O2)c1C3=O (stereo not drawn)
dose: 0.15 mg/kg/injection, schedule: Q01DX009 (ip), vehicle: saline
  T/C: 104 % of control
dose: 0.31 mg/kg/injection, schedule: Q01DX009 (ip), vehicle: saline
  T/C: 101 % of control
dose: 0.62 mg/kg/injection, schedule: Q01DX009 (ip), vehicle: saline
  T/C: 107 % of control
dose: 1.25 mg/kg/injection, schedule: Q01DX009 (ip), vehicle: saline
  T/C: 98 % of control
dose: 2.5 mg/kg/injection, schedule: Q01DX009 (ip), vehicle: saline
  T/C: 103 % of control
[1]
  T/C: 119 % of control

## CN(C)CCN1C(=O)c2cccc3cc(N)cc(c23)C1=O
dose: 1.0 mg/kg/injection, schedule: Q01DX009 (ip), vehicle: saline with Tween-80
  T/C: 100 % of control
dose: 2.0 mg/kg/injection, schedule: Q01DX009 (ip), vehicle: saline with Tween-80
  T/C: 100 % of control
dose: 4.0 mg/kg/injection, schedule: Q01DX009 (ip), vehicle: saline with Tween-80
  T/C: 97 % of control
dose: 8.0 mg/kg/injection, schedule: Q01DX009 (ip), vehicle: saline with Tween-80
  T/C: 98 % of control
dose: 16.0 mg/kg/injection, schedule: Q01DX009 (ip), vehicle: saline with Tween-80
  T/C: 116 % of control

## CCCCCCCCC(C)C(=O)N1CCCC1C(=O)N1C(CC(=O)CC)CC(C)CC1C(=O)NC(C)C(=O)NC(C)(C)C(=O)NC(C)(C)C(=O)NC(C(=O)NC(C)C(=O)NC(C)(C)C(=O)NC(C)(C)C(=O)NC(C)CN(C)CCO)C(C)CC (stereo not drawn) (X1-P[X2]A[Aib][Aib]IA[Aib][Aib]-X3; configuration not given here)
dose: 0.31 mg/kg/injection, schedule: Q01DX009 (ip), vehicle: Klucel (hydroxypropylcellulose) (HPC)
  T/C: 105 % of control
dose: 0.62 mg/kg/injection, schedule: Q01DX009 (ip), vehicle: Klucel (hydroxypropylcellulose) (HPC)
  T/C: 97 % of control
dose: 1.25 mg/kg/injection, schedule: Q01DX009 (ip), vehicle: Klucel (hydroxypropylcellulose) (HPC)
  T/C: 99 % of control
dose: 2.5 mg/kg/injection, schedule: Q01DX009 (ip), vehicle: Klucel (hydroxypropylcellulose) (HPC)
  T/C: 104 % of control
dose: 5.0 mg/kg/injection, schedule: Q01DX009 (ip), vehicle: Klucel (hydroxypropylcellulose) (HPC)
  T/C: 104 % of control

## O=C(N/N=C\c1cc(Br)cc(Br)c1O)N/N=C/c1cc(Br)cc(Br)c1O
[2]
  T/C: 91 % of control
[3]
  T/C: 96 % of control
[4]
  T/C: 98 % of control
[5]
  T/C: 96 % of control
[6]
  T/C: 98 % of control
[7]
  T/C: 96 % of control

## Cc1ccc2c(c1)C(=O)N(CC[P+](c1ccccc1)(c1ccccc1)c1ccccc1)C2=O
dose: 0.78 mg/kg/injection, schedule: Q09DX009 (ip), vehicle: water
  T/C: 98 % of control
dose: 1.56 mg/kg/injection, schedule: Q09DX009 (ip), vehicle: water
  T/C: 89 % of control
dose: 3.12 mg/kg/injection, schedule: Q09DX009 (ip), vehicle: water
  T/C: 89 % of control
dose: 6.25 mg/kg/injection, schedule: Q09DX009 (ip), vehicle: water
  T/C: 87 % of control
dose: 12.5 mg/kg/injection, schedule: Q09DX009 (ip), vehicle: water
  T/C: 97 % of control

## O=c1oc2c(O)c(O)cc3c(=O)oc4c(O)c(O)cc1c4c23
[8]
  T/C: 102 % of control
[9]
  T/C: 112 % of control
[10]
  T/C: 116 % of control
[11]
  T/C: 111 % of control
dose: 400.0 mg/kg/injection, schedule: Q01DX009 (ip), vehicle: Klucel (hydroxypropylcellulose) (HPC)
  T/C: 121 % of control

## O=C(CCN1CC1)Nc1cccc(NC(=O)CCN2CC2)c1
dose: 2.5 mg/kg/injection, schedule: Q01DX009 (ip), vehicle: saline with Tween-80
  T/C: 110 % of control
dose: 5.0 mg/kg/injection, schedule: Q01DX009 (ip), vehicle: saline with Tween-80
  T/C: 106 % of control
dose: 10.0 mg/kg/injection, schedule: Q01DX009 (ip), vehicle: saline with Tween-80
  T/C: 123 % of control

## N#CC(=C1SCS1)[N+](=O)[O-]
dose: 0.75 mg/kg/injection, schedule: Q01DX009 (ip), vehicle: saline with Tween-80
  T/C: 94 % of control
dose: 1.5 mg/kg/injection, schedule: Q01DX009 (ip), vehicle: saline with Tween-80
  T/C: 102 % of control
dose: 3.0 mg/kg/injection, schedule: Q01DX009 (ip), vehicle: saline with Tween-80
  T/C: 102 % of control
dose: 6.0 mg/kg/injection, schedule: Q01DX009 (ip), vehicle: saline with Tween-80
  T/C: 92 % of control

## COc1cccc2c1C(=O)c1c(O)c3c(c(O)c1C2=O)CC(O)(/C(C)=N/NC(=O)CCC(=O)N/N=C(\C)C1(O)Cc2c(O)c4c(c(O)c2C(OC2CC(N)C(O)C(C)O2)C1)C(=O)c1c(OC)cccc1C4=O)CC3OC1CC(N)C(O)C(C)O1 (stereo not drawn)
dose: 1.5 mg/kg/injection, schedule: Q01DX009 (ip), vehicle: water
  T/C: 96 % of control
dose: 3.0 mg/kg/injection, schedule: Q01DX009 (ip), vehicle: water
  T/C: 108 % of control
dose: 6.0 mg/kg/injection, schedule: Q01DX009 (ip), vehicle: water
  T/C: 101 % of control
dose: 12.0 mg/kg/injection, schedule: Q01DX009 (ip), vehicle: water
  T/C: 123 % of control

## N#Cc1nc(C#N)c(Sc2ccccc2)c(Sc2ccccc2)c1Sc1ccccc1
[12]
  T/C: 95 % of control
[13]
  T/C: 94 % of control
[2]
  T/C: 97 % of control
[3]
  T/C: 95 % of control
[4]
  T/C: 98 % of control
[5]
  T/C: 98 % of control

## CCN(C)N=Nc1ccc(C(N)=O)cc1
dose: 6.25 mg/kg/injection, schedule: Q01DX009 (ip), vehicle: Klucel (hydroxypropylcellulose) (HPC)
  T/C: 104 % of control
[8]
  T/C: 102 % of control
[9]
  T/C: 109 % of control
[10]
  T/C: 122 % of control
[11]
  T/C: 87 % of control

## CS(=O)(=O)OCCCNCCCOS(C)(=O)=O
[1]
  T/C: 96 % of control
dose: 10.0 mg/kg/injection, schedule: Q01DX009 (ip), vehicle: saline
  T/C: 106 % of control and 114 % of control
dose: 20.0 mg/kg/injection, schedule: Q01DX009 (ip), vehicle: saline
  T/C: 108 % of control
dose: 40.0 mg/kg/injection, schedule: Q01DX009 (ip), vehicle: saline
  T/C: 113 % of control

## CC(C)CCCCCCCCCCCCC(=O)NCC(=O)NC1C(O)C(O)C(Nc2ncnc3nc[nH]c23)OC1C(O)CO (stereo not drawn)
dose: 0.25 mg/kg/injection, schedule: Q01DX009 (ip), vehicle: Klucel (hydroxypropylcellulose) (HPC)
  T/C: 102 % of control
dose: 1.0 mg/kg/injection, schedule: Q01DX009 (ip), vehicle: Klucel (hydroxypropylcellulose) (HPC)
  T/C: 90 % of control
dose: 2.0 mg/kg/injection, schedule: Q01DX009 (ip), vehicle: Klucel (hydroxypropylcellulose) (HPC)
  T/C: 93 % of control

## CS(=O)(=O)[O-].CS(=O)(=O)[O-].NC1CCCCC1N.[Pt+4] (stereo not drawn)
dose: 0.31 mg/kg/injection, schedule: Q01DX009 (ip), vehicle: dextrose
  T/C: 113 % of control
dose: 0.62 mg/kg/injection, schedule: Q01DX009 (ip), vehicle: dextrose
  T/C: 98 % of control
dose: 1.25 mg/kg/injection, schedule: Q01DX009 (ip), vehicle: dextrose
  T/C: 91 % of control

## c1ccc2c(c1)nnn1c3cnccc3nc21
[14]
  T/C: 103 % of control
[12]
  T/C: 90 % of control
[13]
  T/C: 103 % of control
[2]
  T/C: 109 % of control

## O=c1[nH]c(=O)n(C2CC(O)C(CO)O2)cc1F (stereo not drawn)
dose: 72.0 mg/kg/injection, schedule: Q04DX003 (ip), vehicle: saline
  T/C: 108 % of control and 113 % of control
dose: 72.0 mg/kg/injection, schedule: Q04DX006 (ip), vehicle: saline
  T/C: 123 % of control
dose: 103.0 mg/kg/injection, schedule: Q04DX006 (ip), vehicle: saline
  T/C: 116 % of control
dose: 210.0 mg/kg/injection, schedule: Q04DX006 (ip), vehicle: saline
  T/C: 155 % of control
dose: 300.0 mg/kg/injection, schedule: Q04DX006 (ip), vehicle: saline
  T/C: 96 % of control
dose: 429.0 mg/kg/injection, schedule: Q04DX003 (ip), vehicle: saline
  T/C: 174 % of control

## O=C1NC(=O)/C(=C/C=C/c2ccccc2)S1
[2]
  T/C: 95 % of control
[3]
  T/C: 104 % of control
[4]
  T/C: 101 % of control
[5]
  T/C: 95 % of control
[6]
  T/C: 105 % of control
[7]
  T/C: 104 % of control

## CCCCCCCCCCCCN1C(C)=CS/C1=C\C=C\c1scc(C)[n+]1CCCCCCCCCCCC
dose: 0.78 mg/kg/injection, schedule: Q01DX009 (ip), vehicle: saline with Tween-80
  T/C: 95 % of control
[14]
  T/C: 98 % of control
[12]
  T/C: 91 % of control
